One data set relates to HIV-1 and HHV-7. As to the kind of experiment: Selectivity index (ratio of CC50 to IC50), antiviral assays. Type of data set: cell-based. The following applies: over the viruses and cell types tested. On the procedure:
The IC50 of CADA against the CCR5-using (R5) HIV-1 strain BaL was 0.8 μM in PBMCs. […] The IC50 of PMA for the HIV-1 strains (IIIB, RF and NL4.3) in MT-4 cells was about 0.3 nM, and the IC50 for HHV-7 infection in SupT1 cells was 0.6 nM.

A short description of data set [1]: Cytotoxic concentration (Example 2). Particulars: human, MT-4 cells; read-out: CC50. In kind it is cell-based.
Data set [2] can be described thus: Cytotoxic concentration (Example 2). Particulars: human, SupT1 cells; read-out: CC50. In kind it is cell-based.
The target of data set [3] is T1, CD4 (Homo sapiens, UniProt P01730). As to the kind of experiment: Cell surface CD4 expression by flow cytometry (anti-CD4 mAb Leu3a-PE). In kind it is cell-based. Details: To study the effect of the CADA derivatives on surface CD4 antigen expression, MT-4 and SupT1 cells were incubated; endogenous in cells; host or cells: MT-4, SupT1, PBMC. The following applies: SupT1 cells, ATA 24 μM, CADA 16 μM, PMA 8 nM (FIG. 4). Put shortly:
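MT-4, SupT1 cells and PBMCs were exposed at 37° C to CADA hydrochloride (3.2 or 16 μM) for 20 min to 4 days, with ATA (24 μM) and PMA (8 nM) as comparators in SupT1. Cells were stained with PE-anti-CD4 (Leu3a) for 20 min at 4° C and fixed in 1% formaldehyde. Read-out was flow cytometry as % positive cells and MFI.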

The subject of data set [4] is HHV-7 (KHR strain). As to the kind of experiment: Anti-HHV-7 assay (HHV-7 antigen expression, flow cytometry, day 12). The following applies: SUP-T1, read-out: IC50 for HHV-7 infection. In kind it is cell-based. Here is the method:
The antiviral activity of CADA against HIV-1 and RHV-7 was investigated. PBMCs and […] cell-depleted PBMCs (removed with CD8 magnetic beads; Dynal AS, Oslo, Norway), previously activated with purified PHA (2 μg/ml) and rhIL-2 (1 ng/ml) for 3 days, were pelleted and exposed to HIV-1 (1 ng p24 Ag per 10^6 cells) for 2 hours at 370C. Then the cells were washed three times with warm medium and cultured in complete medium containing rhIL-2 (1 ng/ml) in the presence or absence of different concentrations of CADA hydrochloride. The anti-HIV-1 assays were also performed in MT-4 and SupT1 cells. CADA hydrochloride was diluted in the plates, then the MT-4 cells or SupT1 cells were added and finally the T-tropic HIV-1 strains. The supernatant was collected at day 5 for MT-4 cells, day 8 for SupT1 cells and day 12 for PBMCs, and stored at −20° C. and analyzed for HIV-1 core antigen by p24 Ag ELISA (NEN, Brussels, Belgium). The SupT1 cells were refreshed on day 4, and half of the medium and cells were replaced and fresh CADA-free medium was added. For the PBMCs, fresh culture medium was added at day 6 containing rhIL-2 (but no CADA). For the anti-HHV-7 assays in PBMCs, CADA hydrochloride was diluted in a plate, 2×10˜cells were added and then HHV-7 (KHR strain) was added in complete medium containing rhIL-2 (1 ng/ml). Fresh culture medium was added again at day 6 containing rhIL-2 (but no CADA). The same infection protocol was used for the SupT1 cells, but without rhIL-2. The SupT1 cells were refreshed on day 4 and day 8, half of the medium and the cells were replaced, and fresh medium without CADA was added. The HHV-7 antigen expression was monitored (at day 12) with a specific mAb to HHV-7 (RK-4) (Advanced Biotechnologies, Columbia, Md.) by flow cytometry, as described previously (Thang, Y., et al., Antiviral Res. 43:23-35 (1999)).

Data set [5] deals with HHV-7 (KHR strain). Briefly: Anti-HHV-7 assay in SupT1 cells (antigen expression, flow cytometry, Example 3). Type of data set: cell-based. The following applies: SupT1 cells. Put shortly: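 SupT1 cells pre-incubated 30 min at room temperature with five-fold compound dilutions, then infected with HHV-7. Every 2–3 days from day 4, half the medium and cells were replaced with compound-free medium. Once microscopic CPE appeared, HHV-7 antigen expression was measured by flow cytometry.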

For data set [6], the target named is T1, CD4. As to the kind of experiment: CD4 down-modulation, flow cytometry with FITC-conjugated anti-CD4 (SK3) mAb, MT-4 cells. Further details: To study the effect of the CADA derivatives on surface CD4 antigen expression, MT-4 and SupT1 cells were incubated; endogenous in cells; host or cells: MT-4, SupT1, PBMC. Type of data set: cell-based.
The subject of another data set is HIV-1 strain NL4.3. Briefly: Anti-HIV-1 assay in MT-4 cells (p24 Ag ELISA, Example 3). Type of data set: cell-based. Particulars: MT-4 cells. Summed up:
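MT-4 cells infected with HIV-1 NL4.3 in presence of five-fold compound dilutions, incubated 3–5 days until strong viral CPE in untreated infected cells. Supernatant p24 core antigen measured by ELISA; IC50 is concentration giving 50% reduction in p24.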

For a further data set, the system named is MT-4 cells. As to the kind of experiment: Cytotoxicity assay (trypan blue exclusion, propidium iodide). In kind it is cell-based, human. On the procedure: (§1) Cytotoxicity Assay. Cellular toxicity of the compounds was measured by trypan blue exclusion and also by Propidium Iodide by flow cytometry after 3 or 4 days of incubation, in parallel with the CD4 antigen expression. The CC50 value of each CADA analog is the concentration (in μg/ml) required to reduce the viability of the cells by 50%.

The test system of a further data set is SupT1 cells. The description is as above. In kind it is cell-based, human. On the procedure:
as §1

Data set [7] deals with T1, CD4. Briefly: CD4 down-modulation, flow cytometry with FITC-conjugated anti-CD4 (SK3) mAb, SupT1 cells. In kind it is cell-based. Further details: To study the effect of the CADA derivatives on surface CD4 antigen expression, MT-4 and SupT1 cells were incubated; endogenous in cells; host or cells: MT-4, SupT1, PBMC. Particulars: day 4. Summed up:
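MT-4 and SupT1 cells were exposed at 37 °C to 5-fold compound dilutions (50–0.08 μg/ml). On day 3 (MT-4) or day 4 (SupT1) they were stained with FITC anti-CD4 (SK3) for 30 min at 4 °C and analysed by flow cytometry. IC50 was derived from MFI as % of untreated control, after isotype subtraction.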

The results in this text go back to patent US20040220164A1, “Triaza compound immunoregulatory agents” (priority 2001, published 2004).

Values after ≈ are worked out from the molar mass of the structure shown. Like-named read-outs stand apart in the source and are kept apart here.

Regarding `CCCCCCCCCCCCCC(=O)O[C@@H]1[C@@H](C)[C@@]2(O)[C@@H](C=C(CO)C[C@]3(O)C(=O)C(C)=C[C@@H]23)[C@@H]2C(C)(C)[C@]12OC(C)=O` [PMA, Phorbol myristate acetate, reference compound], in the data set on HIV-1 and HHV-7, the “selectivity index (SI), ratio of CC50 to IC50” value is 2-7. For the same molecule, the CC50 in [1] amounted to 2.1 nM; in data set [2], 1.5 nM. Further, the “percentage of cell surface CD4 expression” value at CD4 [3] (20 minutes) was “only a slight CD4 decrease”; on CD4 [3] (4 hours), “dramatically decreased”; on CD4 [3] (1 day) it was “almost undetectable”; on CD4 [3] (4 days), 81.6%. In the data set on HHV-7 (KHR strain) [4], the IC50 was 0.6 nM.
Consider `C=C1CN(S(=O)(=O)c2ccc(C)cc2)CCCN(Cc2cccnc2)CCCN(S(=O)(=O)c2ccc(C)cc2)C1` [AS-N6P6], for which the “IC50 HHV-7 (50% reduction of HHV-7 antigen expression)” value in the data set on HHV-7 (KHR strain) [5] turned out to be 1.50 µg/mL. Besides, the “IC50 CD4 (50% inhibition of extracellular CD4 expression)” value against CD4 [6] (MT-4 cells, day 3) came out at 3.22 µg/mL; against CD4 [7], 4.27 µg/mL. Besides, the “CD4 down-modulating activity, fold less active than CADA” value on CD4 [6] (compared to CADA, MT-4 cells (stated for some compounds)) came out at 7 fold. Further, the “IC50 HIV-1 (NL4.3), p24 Ag ELISA” value in the data set with HIV-1 strain NL4.3 is 2.38 µg/mL (≈ 4.08 µM). For the same molecule, the “CC50 (50% cytotoxic concentration)” value in the data set on MT-4 cells was 21.4 µg/mL (≈ 36.7 µM); in the data set with SupT1 cells, over 50 µg/mL.
